Here are results for 45 compounds from patent US6342503B1, “1N-alkyl-n-arylpyrimidinamines and derivatives thereof” (DuPont Pharmaceuticals Company, priority 1993, dated 2002).

Bounds are passed on as bounds.

For the first experiment, the target named is T1, CRF receptor (Rattus norvegicus, UniProt P35353).
T1 construct: 100 μl of membrane suspension as prepared above to give a total reaction volume of 300 μl; from tissue; host or cells: rat cerebral cortex membrane homogenate
T1 sequence (P35353 24-415): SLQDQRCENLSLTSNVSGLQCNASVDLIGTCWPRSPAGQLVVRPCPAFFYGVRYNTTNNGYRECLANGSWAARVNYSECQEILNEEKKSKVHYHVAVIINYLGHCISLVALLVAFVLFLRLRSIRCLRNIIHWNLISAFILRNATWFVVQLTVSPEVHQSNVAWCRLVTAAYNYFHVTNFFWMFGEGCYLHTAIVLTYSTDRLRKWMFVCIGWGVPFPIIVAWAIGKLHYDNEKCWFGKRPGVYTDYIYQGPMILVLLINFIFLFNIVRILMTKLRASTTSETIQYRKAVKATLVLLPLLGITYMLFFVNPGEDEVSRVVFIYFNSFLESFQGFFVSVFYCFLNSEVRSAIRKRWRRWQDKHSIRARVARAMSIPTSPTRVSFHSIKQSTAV
Description: In vitro CRF receptor binding assay (competition with [125I] ovine CRF, rat cortex membranes). The following applies: competition with [125I] ovine CRF, 2 h at 22° C.; Ki classes; read-out: Inhibition Ki. As for the experimental part: In vitro Receptor Binding Assay
Tissue Preparation: Male Sprague Dawley rats (180-200 g) were sacrificed by decapitation and the cortex was dissected on ice, frozen whole in liquid nitrogen and stored at −70° C. until use. On the day of assay, frozen tissue was weighed and homogenized in 20 volumes of ice cold buffer containing 50 mM Tris, 10 mM MgCl2, 2 mM EGTA, pH 7.0 at 22° C. using a Polytron (Brinkmann Instruments, Westbury, N.Y.; setting 6) for 20 s. The homogenate was centrifuged at 48,000× g for 10 min at 4° C. The supernatant was discarded, and the pellet was re-homogenized in the same volume of buffer and centrifuged at 48,000× g for 10 min at 4° C. The resulting pellet was resuspended in the above buffer to a final concentration of 20-40 mg original wet weight/mL and used in the assays described below.
CRF Receptor Binding: Receptor binding assays were carried out essentially as described by E. B. De Souza, J. Neurosci. […]
All assays were carried out at equilibrium for 2 h at 22° C. as described by E. B. De Souza, J. Neurosci. […] The reaction was terminated by centrifugation of the tubes in a Beckman microfuge for 5 min at 12,000× g. Aliquots of the supernatant were collected to determine the “free” radioligand concentration. The remaining supernatant was aspirated and the pellets washed gently with ice-cold PBS plus 0.01% Triton X-100; centrifuged again and monitored for bound radioactivity as described above. […] This program has the distinct advantage of fitting the raw experimental data on an untransformed coordinate system where errors are most likely to be normally distributed and uncorrelated with the independent variable. […] The parameters for the affinity constants (KD) and receptor densities (Bmax) are also provided along with statistics on the general “fit” of the estimated parameters to the raw data.
Competition Curve Analysis
The resulting pellets were surface washed twice by centrifugation with 1 mL of ice-cold phosphate buffered saline and 0.01% Triton X-100; the supernatants discarded and the pellets monitored for radioactivity at approximately 80% efficiency. The level of non-specific binding was defined in the presence of […] unlabeled rat/humanCRF (r/hCRF). Data from competition curves were analyzed by the program LIGAND. […] Routinely, the data were analyzed using a one- and two-site model comparing the “goodness of fit” between the models in order to accurately determine the Ki. Statistical analyses provided by LIGAND allowed the determination of whether a single-site or multiple-site model should be used.
In Table 17; the Ki values were determined using the assay conditions described above.
For `CCN(c1nc(C)cc(N2CCOCC2)n1)c1ccc(C(C)C)cc1Br` [compound 16, N-(2-bromo-4-(1-methylethyl)phenyl)-N-ethyl-4-morpholino-6-methyl-2-pymidinamine], the Ki (in general, a measure of affinity in units of concentration, obtained from inhibition or displacement) is less than 500 nM.

As to `CCN(c1nc(C)cc(C)n1)c1ccc(C(C)=NOC)cc1S(C)(=O)=O` [compound 179, N-(2-methylsulfonyl-4-methoxyiminoethylphenyl)-N-ethyl-4,6-dimethyl-2-pyrimidinamine], the Ki was in the range of 2000 to 10000 nM. The same measure, in the same setting: next, `CCN(c1nc(C)cc(C)n1)c1ccc(C(C)C)cc1OC` [compound 65, N-ethyl-N-(2-methoxy4-(1-methylethyl)phenyl)4,6-dimethyl-2-pyimidinamine]: 2000 to 10000 nM.

For the compound “N-ethyl-N-(2-bromo-4-(2-methoxyethyl)phenyl)4-morpholino-6-methyl-2-pyrimidinamine [compound 29]”, the Ki is less than 500 nM.

The experiment is the same for the next values; noted with them: read-out: Inhibition Ki.
In the case of `C=CCOC1CCN(c2cc(C)nc(N(CC)c3ccc(C(C)C)cc3Br)n2)CC1` [compound 37], the Ki is less than 500 nM. Same read-out and setting: next, `CCN(c1nc(C)cc(C)n1)c1ccc(C(C)C)cc1Br` [compound 21, N-(2-bromo-4-(1-methylethyl)phenyl)-N-ethyl-4,6dimethyl-2-pyrimidinamine]: less than 500 nM; `CCN(c1nc(C)cc(N2CCSCC2)n1)c1ccc(C(C)C)cc1I` [compound 73, N-ethyl-N-(2-iodo4-(1-methylethyl)phenyl)4-thiomorpholino-6-methyl-2-pyrimidinamine]: less than 500 nM; `CCN(c1nc(C)cc(C(O)c2ccco2)n1)c1ccc(C(C)C)cc1Br` (stereo not drawn) [compound 291]: less than 500 nM. Same read-out and setting: next, `CCN(c1nc(C)cc(OCCN(C)C)n1)c1ccc(C(C)C)cc1Br` [compound 161]: less than 500 nM; `Cc1cc(-c2ccccc2)c2ccn(-c3ccc(C(C)C)cc3Br)c2n1` [Example 261]: less than 500 nM; `CCN(c1nc(C)cc(OCCC[S+](C)[O-])n1)c1ccc(C(C)C)cc1Br` (stereo not drawn) [compound 162]: less than 500 nM. Same read-out and setting: next, `CCN(c1nc(C)cc(COCc2cccnc2)n1)c1ccc(C(C)C)cc1Br` [compound 216]: less than 500 nM.

On to `CCN(c1nc(C)cc(COc2ccc(OC)cc2)n1)c1ccc(C(C)C)cc1Br` [compound 208], for which the Ki is less than 500 nM. `CCN(c1nc(C)nc(Cl)n1)c1ccc(C(C)C)cc1Br` [compound 250]: the Ki lay in the range of 501 to 2000 nM. As for `CCN(c1nc(C)cc(CN2CCN(c3ncccn3)CC2)n1)c1ccc(C(C)C)cc1Br` [compound 281], the Ki is less than 500 nM. On the same count and under the same terms, next, `C#CCN(c1nc(C)cc(C)n1)c1ccc(C(C)C)cc1Br` [compound 34, N-(2-Bromo-4-(1-methylethyl)phenyl)-N-propargyl4,6-dimethyl-2-pyrimidinamine]: less than 500 nM. Still for that read-out and setting: next, `CCN(c1nc(C)cc(Cl)n1)c1ccc(C(C)C)cc1I` [compound 167, N-(2-iodo4-(1-methylethyl)phenyl)-N-ethyl-4-chloro-6-methyl-2-pyrimidinamine]: less than 500 nM; `CCN(c1nc(C)cc(SC)n1)c1ccc(C(C)C)cc1Br` [compound 140, N-(2-bromo-4-(1-methylethyl)phenyl)-N-ethyl-4-methyl-6-(thiomethyl)-2-pyrimidinamine]: less than 500 nM. On the same count and under the same terms, next, `CCN(c1nc(C)cc(C=O)n1)c1ccc(C(C)C)cc1Br` [compound 222, N-(2-Bromo-4-(1-methylethyl)phenyl)-N-ethyl-4-formyl-6-methyl-2-pyrimidinamine]: 501 to 2000 nM. Consider `Cc1cc(C)nc(N(CC2CC2)c2ccc(C(C)C)cc2Br)n1` [compound 33], for which the Ki is less than 500 nM.

Regarding `CCN(c1nc(C)cc(CN2CCN(c3ccccc3OC)CC2)n1)c1ccc(C(C)C)cc1Br` [compound 275], the inhibition constant (Ki) is less than 500 nM. For the compound `CCN(c1nc(C)cc(CN2CCN(c3ccccn3)CC2)n1)c1ccc(C(C)C)cc1Br` [compound 280], the Ki was less than 500 nM. On the same count and under the same terms, next, `CCOC(=O)C(C(=O)OCC)c1nc(C)nc(N(CC)c2ccc(C(C)C)cc2Br)n1` [compound 246]: less than 500 nM; `CCN(c1nc(C)cc(Cl)n1)c1ccc(C(C)C)cc1Br` [compound 154]: less than 500 nM.

In the case of `Cc1cc(C)nc(N(C)c2ccccc2C(F)(F)F)n1` [compound 54], the Ki was 2000 to 10000 nM. The same measure, in the same setting: next, `CCN(c1nc(C)cc(-c2cccs2)n1)c1ccc(C(C)C)cc1Br` [compound 31, N-(2-Bromo-4-(1-methylethyl)phenyl)-N-ethyl-6-methyl-4-(2-thienyl)-2-pyrimidinamine]: less than 500 nM; `CCN(c1nc(C)cc(C(C)O)n1)c1ccc(C(C)C)cc1Br` (stereo not drawn) [compound 296]: less than 500 nM; `CCOc1ccc(N(CC)c2nc(C)cc(C)n2)c(Br)c1` [compound 201]: less than 500 nM. The same measure, in the same setting: next, `CCN(c1nc(C)cc(COc2ncccn2)n1)c1ccc(C(C)C)cc1Br` [compound 213]: less than 500 nM. Still for that read-out and setting: next, `CCN(c1nc(C)cc(COCC(=O)N2CCOCC2)n1)c1ccc(C(C)C)cc1Br` [compound 229]: 2000 to 10000 nM; `CCN(c1nc(C)cc(N2CCSC2)n1)c1ccc(C(C)C)cc1I` [compound 171, N-(2-iodo-4-(1-methylethyl)phenyl)-N-ethyl-4-thiazolidino-6-methyl-2-pyrimidinamine]: less than 500 nM. Consider `CCN(c1nc(Cl)nc(Cl)n1)c1ccc(C(C)(C)O)cc1I` [compound 249, N-[2-iodo-4-dimethylhydroxymethylphenyl]-N-ethyl-4-6-dichloro-1,3,5 triazin-2-amine], for which the Ki lay in the range of 2000 to 10000 nM. The same measure, in the same setting: next, `COc1ccc(N(C)c2nc(C)cc(C)n2)c(OC)c1` [compound 2]: 501 to 2000 nM. Still for that read-out and setting: next, `CCN(c1nc(C)cc(COCCO)n1)c1ccc(C(C)C)cc1Br` [compound 225, N-(2-Bromo-4-(1-methylethyl)phenyl)-N-ethyl-4-hydroxyethoxymethyl-6-methyl-2-pyrimidinamine]: less than 500 nM; `CCN(c1nc(C)cc(S(C)(=O)=O)n1)c1ccc(C(C)C)cc1Br` [compound 159, N-(2-bromo-4-(1-methylethyl)phenyl)-N-ethyl-4-methyl-6-(thiomethyl)-2-pyrimidinamine, dioxide]: less than 500 nM; `CCN(c1nc(C)nc(N2CCOCC2)n1)c1ccc(C(C)C)cc1Br` [compound 134, N-[2-bromo-4-(1-methylethyl)phenyl]-N-ethyl-4-methyl-6-(4-morpholinyl)-1,3,5-triazin-2-amine]: less than 500 nM.

As to `CCN(c1nc(C)cc(CN2CCN(c3cnccn3)CC2)n1)c1ccc(C(C)C)cc1Br` [compound 278], the inhibition constant Ki is less than 500 nM.

Take `CCSc1cc(C(C)C)ccc1N(CC)c1nc(C)cc(C)n1` [compound 175, N-(2-ethylthio-4-(1-methylethyl)phenyl)-N-ethyl-4,6dimethyl-2-pyrimidinamine]: the inhibitory constant (Ki) lay in the range of 501 to 2000 nM. Still for that read-out and setting: next, `CCN(c1nc(C)cc(NN)n1)c1ccc(C(C)C)cc1Br` [compound 146]: 2000 to 10000 nM; `CCN(c1nc(C)cc(COCc2ccco2)n1)c1ccc(C(C)C)cc1Br` [compound 221]: less than 500 nM; `CCc1ccc(N(C)c2nc(C)cc(C)n2)c(Br)c1` [compound 9, N-(2-bromo-4-ethylphenyl)-N-methyl-4,6-dimethyl-2-pypimidinamine]: less than 500 nM. Take `CCN(c1nc(C)cc(C)n1)c1ccc(COC)cc1I` [compound 172, N-(2-iodo-4-methoxymethylphenyl)-N-ethyl-4,6-dimethyl-2-pyrimidinamine]: the Ki was less than 500 nM. For the compound `CCN(c1nc(C)cc(COc2ccccn2)n1)c1ccc(C(C)C)cc1Br` [compound 210], the Ki was 501 to 2000 nM. Turning to `Cc1cc(C)nc(N(CC#N)c2ccc(C(C)C)cc2Br)n1` [compound 32], the inhibition constant (Ki) is less than 500 nM. Same read-out and setting: next, `CCN(c1nc(C)cc(C)n1)c1ccc(C2CCCCC2)cc1Br` [compound 22]: 501 to 2000 nM.
